The values below come from US20230416275A1, “MODULATORS OF CYSTIC FIBROSIS TRANSMEMBRANE CONDUCTANCE REGULATOR” (VERTEX PHARMACEUTICALS INCORPORATED, priority 2020, published 2023).

As usually defined, the EC50 is the midpoint of the concentration-response curve.

SMILES strings stand for the structures. Where two headings read alike, the source gives them in different places.

For data set [1], the target named is T1, F508del in NIH 3T3 cells (Homo sapiens, UniProt P13569, DEL508-508).
T1 construct: expressed in transfected cells
Description: 3T3 assay: membrane potential optical assay for F508del correction. Format: cell-based, mouse. To be noted: for EC50 / 3T3 Max Activity (%): F508del NIH 3T3 cells; for EC50: compound incubation 18-24 hours at 37° C., forskolin activation; for Emax: NIH3T3, F508del NIH 3T3 cells, read-out: 3T3 Max Activity (%); for Emax / 3T3 Max Activity (%): efficacy compared to lumacaftor in combination with acutely added 300 nM Ivacaftor. In a few lines: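 NIH3T3 mouse fibroblasts stably expressing F508del incubated with corrector compounds at a range of concentrations for 16-24 h at 37 °C, then loaded with voltage-sensing redistribution dye. Single addition of forskolin with Cl− gradient (chloride-free gluconate bath vs. NaCl bath, pH 7.4); membrane potential change read by fluorescence on FLIPR.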

Data set [2] has as its target CFTR-mediated chloride transport in human intestinal epithelial enteroid cells (Homo sapiens, UniProt P13569). Description: Membrane potential dye, Enteroid Assay A. Format: cell-based. To be noted: for Ent. A Max Activity (%): % of chloride transport of triple combination control (3 μM N-[(6-amino-2-pyridyl)sulfonyl]-6-(3-fluoro-5-isobutoxy-phenyl)-2-[(4S)-2,2,4-trimethylpyrrolidin-1-yl]pyridine-3-carboxamide, 3 μM tezacaftor, 300 nM acute ivacaftor); for EC50: enteroid cells, 18-24 hours incubation, acute 10 μM forskolin and 300 nM ivacaftor, read-out: Ent. A EC50. The essentials: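 Enteroids seeded at 5000 cells/well were exposed to test compound in IEMM for 18-24 h at 37 °C, then loaded with methyl oxonol membrane potential dye. Chloride transport was triggered in chloride-free buffer with 10 μM forskolin, 100 μM IBMX and 300 nM Compound III, read by fluorescence for 15 min and expressed as % of a triple-combination control.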

Chain of CFTR-mediated chloride transport in human intestinal epithelial enteroid cells (P13569 with tags, fused parts or gaps DEL508-508): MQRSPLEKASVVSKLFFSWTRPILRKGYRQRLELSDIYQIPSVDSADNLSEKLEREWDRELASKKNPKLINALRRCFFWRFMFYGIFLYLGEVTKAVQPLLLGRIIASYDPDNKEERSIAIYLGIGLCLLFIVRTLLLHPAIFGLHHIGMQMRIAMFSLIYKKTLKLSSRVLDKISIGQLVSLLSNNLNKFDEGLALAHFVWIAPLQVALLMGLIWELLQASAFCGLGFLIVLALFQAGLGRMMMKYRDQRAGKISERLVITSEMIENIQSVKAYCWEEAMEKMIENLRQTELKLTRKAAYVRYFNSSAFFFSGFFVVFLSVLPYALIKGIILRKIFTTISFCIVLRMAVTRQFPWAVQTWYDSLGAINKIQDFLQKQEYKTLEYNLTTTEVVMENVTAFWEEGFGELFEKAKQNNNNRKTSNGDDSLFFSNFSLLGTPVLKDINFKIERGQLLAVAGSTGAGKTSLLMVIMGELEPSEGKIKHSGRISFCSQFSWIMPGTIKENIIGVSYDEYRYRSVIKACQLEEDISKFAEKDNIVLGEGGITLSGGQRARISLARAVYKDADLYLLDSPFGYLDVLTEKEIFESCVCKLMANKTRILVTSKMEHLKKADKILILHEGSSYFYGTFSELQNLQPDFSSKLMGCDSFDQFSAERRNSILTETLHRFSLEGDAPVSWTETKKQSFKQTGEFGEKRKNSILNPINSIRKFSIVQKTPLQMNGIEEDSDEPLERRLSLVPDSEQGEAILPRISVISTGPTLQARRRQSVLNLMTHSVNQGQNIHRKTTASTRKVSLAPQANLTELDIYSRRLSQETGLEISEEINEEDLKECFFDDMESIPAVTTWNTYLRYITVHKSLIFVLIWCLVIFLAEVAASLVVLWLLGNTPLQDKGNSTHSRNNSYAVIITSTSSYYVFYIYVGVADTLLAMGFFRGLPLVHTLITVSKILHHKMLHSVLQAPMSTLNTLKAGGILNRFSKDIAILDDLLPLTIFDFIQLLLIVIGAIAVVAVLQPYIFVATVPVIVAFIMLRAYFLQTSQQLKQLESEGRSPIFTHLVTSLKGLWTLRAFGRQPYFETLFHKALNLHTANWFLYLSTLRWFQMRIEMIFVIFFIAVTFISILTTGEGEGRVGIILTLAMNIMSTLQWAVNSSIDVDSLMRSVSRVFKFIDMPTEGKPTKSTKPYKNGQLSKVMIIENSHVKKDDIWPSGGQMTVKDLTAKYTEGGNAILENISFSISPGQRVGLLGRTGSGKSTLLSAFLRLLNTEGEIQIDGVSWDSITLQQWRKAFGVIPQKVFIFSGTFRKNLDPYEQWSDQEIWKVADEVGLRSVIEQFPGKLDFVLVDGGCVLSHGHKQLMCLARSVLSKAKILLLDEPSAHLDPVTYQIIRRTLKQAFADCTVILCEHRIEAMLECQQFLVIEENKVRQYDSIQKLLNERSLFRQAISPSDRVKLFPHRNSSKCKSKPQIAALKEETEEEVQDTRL
T1 sequence (P13569 with tags, fused parts or gaps DEL508-508): as above

For the molecule `Cc1cccc(C)c1-c1cc2nc(n1)NS(=O)(=O)c1cccc(n1)NC(=O)C1CC(CN(C(=O)OC(C)(C)C)C1)O2` (centres unmarked), the ring closure, yield after HPLC (from Cc1cccc(C)c1-c1cc(OC2CC(C(=O)Oc3c(F)c(F)c(F)c(F)c3F)CN(C(=O)OC(C)(C)C)C2)nc(NS(=O)(=O)c2cccc(N)n2)n1, amide bond, 14-membered ring, none (thermal, OPfp ester), NMP, 10.1 mM, 140.0 °C, 5.0 h, 5 steps) amounted to 1%.

In the case of `Cc1cccc(C)c1-c1cc2nc(n1)NS(=O)(=O)c1cccc(c1)NC(=O)C1CCCC(C1)O2` (mixture of isomers) [Compound 67, 5-(2,6-Dimethylphenyl)-9,9-dioxo-2-oxa-9λ^6-thia-6,8,15,23-tetraazatetracyclo[15.3.1.13,7.110,14]tricosa-3,5,7(23),10(22),11,13-hexaen-16-one], the ring closure, yield after HPLC (amide bond, 14-membered ring, HATU/DIEA, DMF, 100.0 mM, 3 steps) turned out to be 20%. Moreover, in data set [1] (read-out: 3T3 EC50), the EC50 was below 1 µM. For the same molecule, the Emax in data set [1] was above 60%.

On to `Cc1cccc(C)c1-c1cc2nc(n1)NS(=O)(=O)c1cccc(c1)COC1CC(CN(C(=O)OC(C)(C)C)C1)O2` (centres unmarked) [Compound 119, tert-Butyl 19-(2,6-dimethylphenyl)-15,15-dioxo-2,8-dioxa-15λ^6-thia-5,16,18,21-tetraazatetracyclo[15.3.1.13,7.110,14]tricosa-1(21),10,12,14(22),17,19-hexaene-5-carboxylate], for which, under “from tert-butyl 3,5-dihydroxypiperidine-1-carboxylate + 3-(bromomethyl)-N-[4-chloro-6-(2,6-dimethylphenyl)pyrimidin-2-yl]benzenesulfonamide?, snar bond, 14-membered ring, NaH, DMF, 50.0 mM, 2 steps”, the ring closure, yield after HPLC turned out to be 15%. Further, the “Ent. A Max Activity (%)” value in data set [2] is “+ (+ is <30%)”.

As for `Cc1ccccc1-c1cc2nc(n1)NS(=O)(=O)c1cccc(c1)NCc1cccc(c1)O2` [Compound 62, 5-(o-Tolyl)-2-oxa-9λ^6-thia-6,8,15,23-tetraazatetracyclo[15.3.1.13,7.110,14]tricosa-1(20),3,5,7(23),10(22),11,13,17(21),18-nonaene 9,9-dioxide], for the setting “amine bond, 14-membered ring, NaBH(OAc)3/TFA, AcOH, 3 steps”, the ring closure, yield after HPLC was 1%. The EC50 in data set [1] (read-out: 3T3 EC50) was below 1 µM.

Take `Cc1cccc(C)c1-c1cc2nc(n1)NS(=O)(=O)c1cccc(c1)NC(=O)[C@@H]1C[C@@H](CN(C(=O)OCCC(C)C)C1)O2` [Compound 8, 3-Methylbutyl (3S,7R)-19-(2,6-dimethylphenyl)-8,15,15-trioxo-2-oxa-15λ^6-thia-5,9,16,18,21-pentaazatetracyclo[15.3.1.13,7.110,14]tricosa-1(21),10(22),11,13,17,19-hexaene-5-carboxylate]: in data set [1] (read-out: 3T3 EC50), the EC50 was below 1 µM. Also, in data set [2], the “Ent. A Max Activity (%)” value was “+++ (+++ is >60%)” and the EC50 was below 1000 nM.

`Cc1cccc(C)c1-c1cc2nc(n1)NS(=O)(=O)c1cccc(c1)NC(=O)[C@@H]1C[C@@H](CN(C(=O)OC(C)(C)C)C1)O2` (single isomer, unassigned) [Compound 2]: the EC50 in data set [1] (read-out: 3T3 EC50) is below 1 µM. The Emax in data set [1] was above 60%. Further, in data set [2], the “Ent. A Max Activity (%)” value is on record as “+++ (+++ is >60%)” and the EC50 was below 1000 nM.

Take `Cc1cccc(C)c1-c1cc2nc(n1)NS(=O)(=O)c1cccc(c1)NC(=O)[C@H]1CNC[C@@H](C1)O2` [Compound 47]: the Emax in data set [1] lay in the range of 30 to 60%. For the same molecule, the “Ent. A Max Activity (%)” value in data set [2] is reported as “+ (+ is <30%)”.

As to `CC(C)c1ccccc1-c1cc2nc(n1)NS(=O)(=O)c1cccc(c1)NC(=O)c1cccc(c1)O2` [Compound 81], in data set [1] (read-out: 3T3 EC50), the EC50 was below 1 µM. In addition, the Emax in data set [1] is above 60%. Further, in data set [2], the “Ent. A Max Activity (%)” value is “++ (++ is 30-60%)” and the EC50 lay within 3000 to 30000 nM.

In the case of `Cc1cccc(C)c1-c1cc2nc(n1)NS(=O)(=O)c1cccc(c1)NC(=O)c1ccc(Cl)c(c1)O2` [Compound 117], in data set [1] (read-out: 3T3 EC50), the EC50 was below 1 µM. The Emax in data set [1] is above 60%. Also, in data set [2], the “Ent. A Max Activity (%)” value is given as “+++ (+++ is >60%)” and the EC50 fell in the range of 1000 to 3000 nM.

Regarding `COCCN1C[C@@H]2C[C@H](C1)C(=O)Nc1cccc(c1)S(=O)(=O)Nc1nc(cc(-c3c(C)cccc3C)n1)O2` [Compound 7, (3S,7R)-19-(2,6-Dimethylphenyl)-5-(2-methoxyethyl)-2-oxa-15λ^6-thia-5,9,16,18,21-pentaazatetracyclo[15.3.1.13,7.110,14]tricosa-1(21),10(22),11,13,17,19-hexaene-8,15,15-trione], the EC50 in data set [1] (read-out: 3T3 EC50) is below 1 µM. The Emax in data set [1] is above 60%. In addition, in data set [2], the “Ent. A Max Activity (%)” value was “+++ (+++ is >60%)” and the EC50 fell in the range of 1000 to 3000 nM.

Consider `Cc1cccc(C)c1-c1cc2nc(n1)NS(=O)(=O)c1cccc(c1)NC(=O)[C@@H]1CNC[C@H](C1)O2` [Compound 48], for which the EC50 in data set [1] (read-out: 3T3 EC50) is 1 to 3 µM. For the same molecule, in data set [1], the Emax was above 60%. Further, the “Ent. A Max Activity (%)” value in data set [2] was “++ (++ is 30-60%)”.

For the molecule `Cc1cccc(C)c1-c1cc2nc(n1)NS(=O)(=O)c1cccc(c1)NC(=O)[C@H]1CCC[C@H](C1)O2` (single isomer, unassigned) [Compound 70, 5-(2,6-Dimethylphenyl)-9,9-dioxo-2-oxa-9λ^6-thia-6,8,15,23-tetraazatetracyclo[15.3.1.13,7.110,14]tricosa-3,5,7(23),10(22),11,13-hexaen-16-one], the results for the EC50 in data set [1] (read-out: 3T3 EC50) and in data set [2] were 1 to 3 µM and 1000 to 3000 nM, respectively. For the same molecule, in data set [1], the “3T3 Max Activity (%)” value is listed as “+++ (+++ is >60%)”. In data set [2], the “Ent. A Max Activity (%)” value was “++ (++ is 30-60%)”.

With `Cc1cccc(C)c1-c1cc2nc(n1)NS(=O)(=O)c1cccc(c1)NC(=O)CCCCO2` [Compound 72, 6-(2,6-Dimethylphenyl)-2,2-dioxo-9-oxa-2λ^6-thia-3,5,15,21-tetrazatricyclo[14.3.1.14,8]henicosa-1(20),4(21),5,7,16,18-hexaen-14-one], the ring closure, yield after HPLC (amide bond, 15-membered ring, HATU/DIEA, DMF, 5 steps) was 3%. For the same molecule, the EC50 in data set [1] (read-out: 3T3 EC50) was below 1 µM. Further, the Emax in data set [1] was above 60%.

In the case of `Cc1ccccc1-c1cc2nc(n1)NS(=O)(=O)c1cccc(c1)NC(=O)c1cccc(c1)O2` [Compound 54, 5-(o-Tolyl)-9,9-dioxo-2-oxa-9λ^6-thia-6,8,15,23-tetraazatetracyclo[15.3.1.13,7.110,14]tricosa-1(20),3,5,7(23),10(22),11,13,17(21),18-nonaen-16-one], the ring closure, yield after HPLC (from Cc1ccccc1-c1cc(Oc2cccc(C(=O)O)c2)nc(NS(=O)(=O)c2cccc(N)c2)n1, amide bond, 14-membered ring, HATU/DIEA, DMF, 81.2 mM, 0.33 h) amounted to 45%. Further, the EC50 in data set [1] (read-out: 3T3 EC50) was below 1 µM. Moreover, the Emax in data set [1] is above 60%.

Take `Cc1cccc(C)c1-c1cc2nc(n1)NS(=O)(=O)c1cccc(c1)NC(=O)C1CNCC(C1)O2` (centres unmarked) [Compound 51]: the EC50 in data set [1] (read-out: 3T3 EC50) lay within 3 to 30 µM; in data set [2], 3000 to 30000 nM. Moreover, in data set [1], the “3T3 Max Activity (%)” value is “+++ (+++ is >60%)”. Moreover, the “Ent. A Max Activity (%)” value in data set [2] is “++ (++ is 30-60%)”.

`Cc1ccccc1-c1cc2nc(n1)NS(=O)(=O)c1cccc(c1)Nc1cccc(c1)O2`: the ring closure, yield after HPLC (other bond, 13-membered ring, CuI/pyrrole-2-carboxylic acid/K3PO4, DMSO, 65.2 mM, 3 steps) is 2%.

In the case of `Cc1cccc(C)c1-c1cc2nc(n1)NS(=O)(=O)c1cccc(c1)NC(=O)[C@@H]1C[C@@H](CN(CCCCC(C)(C)C)C1)O2` [Compound 21], the EC50 in data set [1] (read-out: 3T3 EC50) is below 1 µM; in data set [2], below 1000 nM. For the same molecule, the Emax in data set [1] was above 60%. Moreover, in data set [2], the “Ent. A Max Activity (%)” value was “++ (++ is 30-60%)”.

Consider `Cc1cccc(C)c1-c1cc2nc(n1)NS(=O)(=O)c1cccc(c1)NC(=O)[C@@H]1C[C@@H](CN(CCC3(C(F)(F)F)CC3)C1)O2` [Compound 27], for which, in data set [1] (read-out: 3T3 EC50), the EC50 was below 1 µM. The Emax in data set [1] is above 60%. Moreover, in data set [2], the “Ent. A Max Activity (%)” value is “+++ (+++ is >60%)” and the EC50 was below 1000 nM.

On to `Cc1cccc(C)c1-c1cc2nc(n1)NS(=O)(=O)c1cccc(c1)NC(=O)c1cc(Cl)cc(c1)O2` [Compound 118], for which the EC50 in data set [1] (read-out: 3T3 EC50) was below 1 µM. The Emax in data set [1] is above 60%. Besides, in data set [2], the “Ent. A Max Activity (%)” value was “+++ (+++ is >60%)” and the EC50 was in the range of 1000 to 3000 nM.

Take `Cc1ccccc1-c1cc2nc(n1)NS(=O)(=O)c1cccc(c1)NC(=O)c1ccc(cc1)O2` [Compound 63, 5-(o-Tolyl)-9,9-dioxo-2-oxa-9λ^6-thia-6,8,15,23-tetraazatetracyclo[15.2.2.13,7.110,14]tricosa-1(19),3,5,7(23),10(22),11,13,17,20-nonaen-16-one]: the ring closure, yield after HPLC (amide bond, 15-membered ring, HATU/DIEA, DMF, 3 steps) was 1%. Also, the EC50 in data set [1] (3T3 EC50 (μM)) lay in the range of 1 to 3 µM.

In the case of `Cc1cccc(C)c1-c1cc2nc(n1)NS(=O)(=O)c1cccc(c1)NC(=O)[C@@H]1C[C@@H](CN(CC3CC3)C1)O2` [Compound 30], the values for the EC50 in data set [1] (read-out: 3T3 EC50) and in data set [2] were below 1 µM and 1000 to 3000 nM, respectively. For the same molecule, the Emax in data set [1] was above 60%. For the same molecule, the “Ent. A Max Activity (%)” value in data set [2] is on record as “++ (++ is 30-60%)”.
